Results reported in PubChem BioAssay (NCI).
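Briefly, cells in 96-well plates were exposed to five compound concentrations for 48 h, and endpoints were estimated by linear interpolation. Abbreviation: GI50, concentration required for 50% inhibition of growth. TGI: total growth inhibition.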

Experiments:
Assay in all cases: DTP human tumour cell line panel, 48 h
786-0 renal = system: 786-0 renal
A498 renal = system: A498 renal
A549 NSCLC = system: A549 NSCLC
ACHN renal = system: ACHN renal
BT-549 breast = system: BT-549 breast
CAKI-1 renal = system: CAKI-1 renal
COLO 205 colon = system: COLO 205 colon
DU-145 prostate = system: DU-145 prostate
EKVX NSCLC = system: EKVX NSCLC
HCC-2998 colon = system: HCC-2998 colon
HCT-116 colon = system: HCT-116 colon
HCT-15 colon = system: HCT-15 colon
HOP-62 NSCLC = system: HOP-62 NSCLC
HOP-92 NSCLC = system: HOP-92 NSCLC
HT29 colon = system: HT29 colon
K-562 leukemia = system: K-562 leukemia
KM12 colon = system: KM12 colon
LOX IMVI melanoma = system: LOX IMVI melanoma
M14 melanoma = system: M14 melanoma
MALME-3M melanoma = system: MALME-3M melanoma
MCF7 breast = system: MCF7 breast
MDA-MB-231 breast = system: MDA-MB-231 breast
MDA-MB-435 = system: MDA-MB-435
MDA-N = system: MDA-N
MOLT-4 leukemia = system: MOLT-4 leukemia
NCI-H226 lung = system: NCI-H226 lung
NCI-H23 lung = system: NCI-H23 lung
NCI-H460 lung = system: NCI-H460 lung
NCI-H522 lung = system: NCI-H522 lung
NCI/ADR-RES ovarian = system: NCI/ADR-RES ovarian
OVCAR-3 ovarian = system: OVCAR-3 ovarian
OVCAR-4 ovarian = system: OVCAR-4 ovarian
OVCAR-5 ovarian = system: OVCAR-5 ovarian
OVCAR-8 ovarian = system: OVCAR-8 ovarian
PC-3 prostate = system: PC-3 prostate
RXF 393 renal = system: RXF 393 renal
SF-268 CNS = system: SF-268 CNS
SF-295 CNS = system: SF-295 CNS
SF-539 CNS = system: SF-539 CNS
SK-MEL-2 melanoma = system: SK-MEL-2 melanoma
SK-MEL-28 melanoma = system: SK-MEL-28 melanoma
SK-MEL-5 melanoma = system: SK-MEL-5 melanoma
SK-OV-3 ovarian = system: SK-OV-3 ovarian
SN12C renal = system: SN12C renal
SNB-19 CNS = system: SNB-19 CNS
SNB-75 CNS = system: SNB-75 CNS
SW-620 colon = system: SW-620 colon
T-47D breast = system: T-47D breast
TK-10 renal = system: TK-10 renal
U251 CNS = system: U251 CNS
UACC-257 melanoma = system: UACC-257 melanoma
UACC-62 melanoma = system: UACC-62 melanoma
UO-31 renal = system: UO-31 renal
CCRF-CEM leukemia = system: CCRF-CEM leukemia
HL-60(TB) leukemia = system: HL-60(TB) leukemia
HS 578T breast = system: HS 578T breast
IGROV1 ovarian = system: IGROV1 ovarian
RPMI-8226 leukemia = system: RPMI-8226 leukemia
SR leukemia = system: SR leukemia

Structure (SMILES): CCOC(=O)CCC(NC(=O)c1ccc(NCc2ccc3nc(-c4ccccc4)c(Cl)nc3c2)c2ccccc12)C(=O)OCC (centres undefined)
- TGI (786-0 renal): > 100 µM
- TGI (A498 renal): > 100 µM
- TGI (A549 NSCLC): > 100 µM
- TGI (ACHN renal): > 100 µM
- TGI (BT-549 breast): > 100 µM
- TGI (CAKI-1 renal): > 100 µM
- TGI (COLO 205 colon): > 100 µM
- TGI (DU-145 prostate): > 100 µM
- TGI (EKVX NSCLC): > 100 µM
- TGI (HCC-2998 colon): > 100 µM
- TGI (HCT-116 colon): > 100 µM
- TGI (HCT-15 colon): > 100 µM
- TGI (HOP-62 NSCLC): > 100 µM
- TGI (HOP-92 NSCLC): > 100 µM
- TGI (HT29 colon): > 100 µM
- TGI (K-562 leukemia): > 100 µM
- TGI (KM12 colon): > 100 µM
- TGI (LOX IMVI melanoma): > 100 µM
- TGI (M14 melanoma): > 100 µM
- TGI (MALME-3M melanoma): > 100 µM
- TGI (MCF7 breast): > 100 µM
- TGI (MDA-MB-231 breast): > 100 µM
- TGI (MDA-MB-435): > 100 µM
- TGI (MDA-N): > 100 µM
- TGI (MOLT-4 leukemia): 27.9 µM
- TGI (NCI-H226 lung): > 100 µM
- TGI (NCI-H23 lung): > 100 µM
- TGI (NCI-H460 lung): > 100 µM
- TGI (NCI-H522 lung): > 100 µM
- TGI (NCI/ADR-RES ovarian): > 100 µM
- TGI (OVCAR-3 ovarian): > 100 µM
- TGI (OVCAR-4 ovarian): > 100 µM
- TGI (OVCAR-5 ovarian): > 100 µM
- TGI (OVCAR-8 ovarian): > 100 µM
- TGI (PC-3 prostate): > 100 µM
- TGI (RXF 393 renal): > 100 µM
- TGI (SF-268 CNS): > 100 µM
- TGI (SF-295 CNS): > 100 µM
- TGI (SF-539 CNS): > 100 µM
- TGI (SK-MEL-2 melanoma): > 100 µM
- TGI (SK-MEL-28 melanoma): > 100 µM
- TGI (SK-MEL-5 melanoma): > 100 µM
- TGI (SK-OV-3 ovarian): > 100 µM
- TGI (SN12C renal): > 100 µM
- TGI (SNB-19 CNS): > 100 µM
- TGI (SNB-75 CNS): > 100 µM
- TGI (SW-620 colon): > 100 µM
- TGI (T-47D breast): > 100 µM
- TGI (TK-10 renal): > 100 µM
- TGI (U251 CNS): > 100 µM
- TGI (UACC-257 melanoma): 61.5 µM
- TGI (UACC-62 melanoma): > 100 µM
- TGI (UO-31 renal): > 100 µM

Structure (SMILES): Cc1ccccc1NC(=O)c1sc2nc3c(cc2c1N)C(=O)CCC3
- GI50 (786-0 renal): 9.02 µM
- TGI (786-0 renal): > 100 µM
- GI50 (A498 renal): 1.16 µM
- TGI (A498 renal): 4.65 µM
- GI50 (A549 NSCLC): 2.22 µM
- TGI (A549 NSCLC): > 100 µM
- GI50 (ACHN renal): 15.8 µM
- TGI (ACHN renal): > 100 µM
- GI50 (BT-549 breast): 6.58 µM
- TGI (BT-549 breast): > 100 µM
- GI50 (CAKI-1 renal): 6.74 µM
- TGI (CAKI-1 renal): > 100 µM
- GI50 (CCRF-CEM leukemia): 2.55 µM
- TGI (CCRF-CEM leukemia): > 100 µM
- GI50 (COLO 205 colon): 2.13 µM
- TGI (COLO 205 colon): 6.69 µM
- GI50 (DU-145 prostate): 2.7 µM
- TGI (DU-145 prostate): 8.41 µM
- GI50 (EKVX NSCLC): 6.82 µM
- TGI (EKVX NSCLC): > 100 µM
- GI50 (HCC-2998 colon): 3.21 µM
- TGI (HCC-2998 colon): > 100 µM
- GI50 (HCT-116 colon): 3.56 µM
- TGI (HCT-116 colon): > 100 µM
- GI50 (HCT-15 colon): 1.64 µM
- TGI (HCT-15 colon): > 100 µM
- GI50 (HL-60(TB) leukemia): 3.1 µM
- TGI (HL-60(TB) leukemia): > 100 µM
- GI50 (HOP-62 NSCLC): 7.28 µM
- TGI (HOP-62 NSCLC): > 100 µM
- GI50 (HOP-92 NSCLC): > 100 µM
- TGI (HOP-92 NSCLC): > 100 µM
- GI50 (HS 578T breast): 1.71 µM
- TGI (HS 578T breast): 5.56 µM
- GI50 (HT29 colon): 1.59 µM
- TGI (HT29 colon): 23.7 µM
- GI50 (IGROV1 ovarian): 5.26 µM
- TGI (IGROV1 ovarian): > 100 µM
- GI50 (K-562 leukemia): 0.771 µM
- TGI (K-562 leukemia): > 100 µM
- GI50 (KM12 colon): 1.69 µM
- TGI (KM12 colon): > 100 µM
- GI50 (LOX IMVI melanoma): 6.71 µM
- TGI (LOX IMVI melanoma): > 100 µM
- GI50 (M14 melanoma): 2.27 µM
- TGI (M14 melanoma): > 100 µM
- GI50 (MALME-3M melanoma): 3.54 µM
- TGI (MALME-3M melanoma): > 100 µM
- GI50 (MCF7 breast): 1.58 µM
- TGI (MCF7 breast): > 100 µM
- GI50 (MDA-MB-231 breast): 3.98 µM
- TGI (MDA-MB-231 breast): > 100 µM
- GI50 (MDA-MB-435): 0.331 µM
- TGI (MDA-MB-435): 1.98 µM
- GI50 (MOLT-4 leukemia): 11.3 µM
- TGI (MOLT-4 leukemia): > 100 µM
- GI50 (NCI-H226 lung): 37.6 µM
- TGI (NCI-H226 lung): > 100 µM
- GI50 (NCI-H23 lung): 4.62 µM
- TGI (NCI-H23 lung): > 100 µM
- GI50 (NCI-H460 lung): 2.63 µM
- TGI (NCI-H460 lung): 10.6 µM
- GI50 (NCI-H522 lung): 0.896 µM
- TGI (NCI-H522 lung): 3.5 µM
- GI50 (NCI/ADR-RES ovarian): 2.23 µM
- TGI (NCI/ADR-RES ovarian): > 100 µM
- GI50 (OVCAR-3 ovarian): 1.76 µM
- TGI (OVCAR-3 ovarian): 4.45 µM
- GI50 (OVCAR-4 ovarian): 6.21 µM
- TGI (OVCAR-4 ovarian): > 100 µM
- GI50 (OVCAR-5 ovarian): 6.82 µM
- TGI (OVCAR-5 ovarian): > 100 µM
- GI50 (OVCAR-8 ovarian): 4.89 µM
- TGI (OVCAR-8 ovarian): > 100 µM
- GI50 (PC-3 prostate): 3.13 µM
- TGI (PC-3 prostate): > 100 µM
- GI50 (RPMI-8226 leukemia): 5.29 µM
- TGI (RPMI-8226 leukemia): > 100 µM
- GI50 (RXF 393 renal): 1.62 µM
- TGI (RXF 393 renal): 5.65 µM
- GI50 (SF-268 CNS): 8.51 µM
- TGI (SF-268 CNS): > 100 µM
- GI50 (SF-295 CNS): 1.33 µM
- TGI (SF-295 CNS): > 100 µM
- GI50 (SF-539 CNS): 2.13 µM
- TGI (SF-539 CNS): 8.1 µM
- GI50 (SK-MEL-2 melanoma): 0.548 µM
- TGI (SK-MEL-2 melanoma): > 100 µM
- GI50 (SK-MEL-28 melanoma): 1.83 µM
- TGI (SK-MEL-28 melanoma): > 100 µM
- GI50 (SK-MEL-5 melanoma): 0.613 µM
- TGI (SK-MEL-5 melanoma): 11.6 µM
- GI50 (SK-OV-3 ovarian): 2.72 µM
- TGI (SK-OV-3 ovarian): > 100 µM
- GI50 (SN12C renal): 5.53 µM
- TGI (SN12C renal): > 100 µM
- GI50 (SNB-19 CNS): 3.1 µM
- TGI (SNB-19 CNS): > 100 µM
- GI50 (SNB-75 CNS): 1.66 µM
- TGI (SNB-75 CNS): > 100 µM
- GI50 (SR leukemia): 2.93 µM
- TGI (SR leukemia): > 100 µM
- GI50 (SW-620 colon): 1.83 µM
- TGI (SW-620 colon): > 100 µM
- GI50 (T-47D breast): 4.81 µM
- TGI (T-47D breast): > 100 µM
- GI50 (TK-10 renal): 4.05 µM
- TGI (TK-10 renal): > 100 µM
- GI50 (U251 CNS): 1.67 µM
- TGI (U251 CNS): 21.4 µM
- GI50 (UACC-257 melanoma): 1.97 µM
- TGI (UACC-257 melanoma): > 100 µM
- GI50 (UACC-62 melanoma): 0.999 µM
- TGI (UACC-62 melanoma): > 100 µM
- GI50 (UO-31 renal): 34.4 µM
- TGI (UO-31 renal): > 100 µM
